In patent publication US9359297B2, “Spirolactam derivatives and uses of same” (H. Lundbeck A/S, priority 2009, dated 2016):

Molecular target: T1, human metabotropic glutamate receptor 5 (hmGluR5) (Homo sapiens, UniProt P41594)
T1 construct: expressed in transfected cells
Test: Calcium mobilization (FLIPR) assay for negative allosteric modulation, EC80 glutamate, hmGluR5 in HEK 293
Format: cell-based
Details: HEK293; hmGluR5, inhibition of EC80 glutamate response; read-out: FLIPR maximum inhibition
Procedure: The cDNA for rat metabotropic glutamate receptor 5 (rmGluR5) and the cDNA for human metabotropic glutamate receptor 5 (hmGluR5) were generous gifts from S. Nakanishi (Kyoto University, Kyoto, Japan). The rmGluR5 or hmGluR5 was stably expressed in a HEK 293 cell line and grown in Dulbecco's Modified Eagle Medium (DMEM) (Invitrogen, Carlsbad, Calif.) with supplements (10% bovine calf serum, 4 mM glutamine, 100 units/mL penicillin, 100 μg/mL streptomycin and 0.75 mM G1418) at 37° C., 5% CO2. Twenty-four hours prior to assay, cells were seeded into 384-well black wall microtiter plates coated with poly-D-lysine. Just prior to assay, media was aspirated and cells dye-loaded (25 μL/well) with 3 μM Fluo-4/0.01% pluronic acid in assay buffer (Hank's Balanced Saline Solution (HBSS)): 150 mM NaCl, 5 mM KCl, 1 mM CaCl2, 1 mM MgCl2, plus 20 mM N-2-Hydroxyethylpiperazine-N′-2-ethanesulfonic acid (HEPES), pH 7.4, 0.1% bovine serum albumin (BSA) and 2.5 mM probenicid) for 1 hour in 5% CO2 at 37° C. After excess dye was discarded, cells were washed in assay buffer and layered with a final volume equal to 30 μL/well. Basal fluorescence is monitored in a fluorometric imaging plate reader (FLIPR) (Molecular Devices, Sunnyvale, Calif.) with an excitation wavelength of 488 nm and an emission range of 500 to 560 nm. Laser excitation energy was adjusted so that basal fluorescence readings were approximately 10,000 relative fluorescent units. Cells were stimulated with an EC20 or an EC80 concentration of glutamate in the presence of a compound to be tested, both diluted in assay buffer, and relative fluorescent units were measured at defined intervals (exposure=0.6 sec) over a 3 min period at room temperature. Basal readings derived from negative controls were subtracted from all samples. Maximum change in fluorescence was calculated for each well. Concentration-response curves derived from the maximum change in fluorescence were analyzed by nonlinear regression (Hill equation). A negative modulator can be identified from these concentration-response curves if a compound produces a concentration dependent inhibition of the EC80 glutamate response.

T1 sequence (P41594 21-1212): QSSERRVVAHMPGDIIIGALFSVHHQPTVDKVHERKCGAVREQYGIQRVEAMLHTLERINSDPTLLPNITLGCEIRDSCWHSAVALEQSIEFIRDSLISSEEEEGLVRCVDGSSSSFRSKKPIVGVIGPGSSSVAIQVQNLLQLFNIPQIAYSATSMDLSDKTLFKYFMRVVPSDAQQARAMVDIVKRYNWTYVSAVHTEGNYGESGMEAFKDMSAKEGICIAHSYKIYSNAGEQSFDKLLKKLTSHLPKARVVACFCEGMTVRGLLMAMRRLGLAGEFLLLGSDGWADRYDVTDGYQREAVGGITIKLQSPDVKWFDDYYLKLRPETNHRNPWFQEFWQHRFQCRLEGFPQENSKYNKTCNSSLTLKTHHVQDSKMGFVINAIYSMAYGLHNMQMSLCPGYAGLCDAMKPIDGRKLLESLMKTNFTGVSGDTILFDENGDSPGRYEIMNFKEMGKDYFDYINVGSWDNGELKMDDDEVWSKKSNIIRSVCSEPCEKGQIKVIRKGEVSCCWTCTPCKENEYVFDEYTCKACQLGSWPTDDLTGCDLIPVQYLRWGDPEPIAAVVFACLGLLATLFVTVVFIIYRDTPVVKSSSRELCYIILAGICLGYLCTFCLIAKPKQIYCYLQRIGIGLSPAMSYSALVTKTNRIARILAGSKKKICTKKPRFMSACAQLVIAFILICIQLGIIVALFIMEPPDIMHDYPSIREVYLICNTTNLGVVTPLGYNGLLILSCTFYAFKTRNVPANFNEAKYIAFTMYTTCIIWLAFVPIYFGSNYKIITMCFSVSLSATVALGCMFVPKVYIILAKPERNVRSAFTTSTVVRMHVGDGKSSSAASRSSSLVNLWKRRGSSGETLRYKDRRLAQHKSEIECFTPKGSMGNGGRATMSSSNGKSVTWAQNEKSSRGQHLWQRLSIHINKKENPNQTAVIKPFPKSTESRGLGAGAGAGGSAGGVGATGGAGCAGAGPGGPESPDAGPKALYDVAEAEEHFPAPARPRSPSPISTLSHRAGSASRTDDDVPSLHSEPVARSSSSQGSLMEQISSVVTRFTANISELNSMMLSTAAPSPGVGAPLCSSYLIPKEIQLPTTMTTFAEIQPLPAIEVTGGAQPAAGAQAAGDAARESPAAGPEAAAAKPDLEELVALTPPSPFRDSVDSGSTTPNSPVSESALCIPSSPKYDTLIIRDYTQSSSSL

SMILES	Emax
O=C(N[C@@H]1CCC[C@@]2(CCN(c3cc(F)cc(F)c3)C2=O)C1)c1nccs1 (relative stereo) [Example 143, cis-Thiazole-2-carboxylic acid [2-(3,5-difluoro-phenyl)-1-oxo-2-aza-spiro[4.5]dec-7-yl]-amide]	47 to 93%
O=C(N[C@@H]1CC(F)(F)C[C@@]2(CCN(c3cc(F)cc(F)c3)C2=O)C1)c1ccccn1 (single isomer, unassigned) [Example 114]	47 to 93%
Cc1nccc(N2CC[C@@]3(CCC[C@@H](NC(=O)c4cccc(Cl)c4)C3)C2=O)n1 [Example 148, 3-Chloro-N-[(5R,7R)-2-(2-methyl-pyrimidin-4-yl)-1-oxo-2-aza-spiro[4.5]dec-7-yl]-benzamide]	47 to 93%
CN(C)c1cccc(N2CC[C@]3(CCC[C@H](NC(=O)c4cccc(F)c4)C3)C2=O)c1 [Example 132, Cis-N-[(5S,7S)-2-(3-Dimethylamino-phenyl)-1-oxo-2-aza-spiro[4.5]dec-7-yl]-3-fluoro-benzamide]	47 to 93%
Cc1nc(C(=O)N[C@@H]2CCC[C@@]3(CCN(c4cc(F)cc(F)c4)C3=O)C2)cc(=O)[nH]1 [Example 159, 2-Methyl-6-oxo-1,6-dihydro-pyrimidine-4-carboxylic acid [(5R,7R)-2-(3,5-difluoro-phenyl)-1-oxo-2-aza-spiro[4.5]dec-7-yl]amide]	47 to 93%
O=C(N[C@H]1CCC[C@]2(CCN(c3cncc(F)c3)C2=O)C1)c1ccccn1 (relative stereo) [Example 74, cis-Pyridine-2-carboxylic acid [2-(5-fluoro-pyridin-3-yl)-1-oxo-2-aza-spiro[4.5]dec-7-yl]-amide]	73 to 95%
Cc1nccc(C(=O)N[C@@H]2CC(F)(F)C[C@@]3(CCN(c4cccc(F)c4)C3=O)C2)n1 (racemic) [Example 129, cis-2-Methyl-pyrimidine-4-carboxylic acid [9,9-difluoro-2-(3-fluoro-phenyl)-1-oxo-2-aza-spiro[4.5]dec-7-yl]-amide]	47 to 93%
Cc1cccc(C(=O)N[C@@H]2CC(F)(F)C[C@@]3(CCN(c4ccnc(C)n4)C3=O)C2)n1 (relative stereo) [Example 108, cis-6-Methyl-pyridine-2-carboxylic acid [9,9-difluoro-2-(2-methyl-pyrimidin-4-yl)-1-oxo-2-aza-spiro[4.5]dec-7-yl]-amide]	47 to 93%
COc1cccc(N2CC[C@]3(CCC[C@H](NC(=O)c4cccc(C)n4)C3)C2=O)c1 (relative stereo) [Example 72, cis-6-Methyl-pyridine-2-carboxylic acid [2-(3-methoxy-phenyl)-1-oxo-2-aza-spiro[4.5]dec-7-yl]-amide]	73 to 95%
O=C(N[C@@H]1CC(F)(F)C[C@]2(CCN(c3cccc(F)c3)C2=O)C1)c1ccccn1 (single isomer, unassigned) [Example 102]	47 to 93%
O=C(N[C@H]1CCC[C@]2(CCN(c3cccc(F)c3)C2=O)C1)c1cccc(C(F)(F)F)n1 (relative stereo) [Example 94, cis-6-Trifluoromethyl-pyridine-2-carboxylic acid [2-(3-fluoro-phenyl)-1-oxo-2-aza-spiro[4.5]dec-7-yl]-amide]	73 to 95%
Cc1cccc(C(=O)N[C@@H]2CC(F)(F)C[C@@]3(CCN(c4cccc(F)c4)C3=O)C2)n1 (relative stereo) [Example 107, cis-6-Methyl-pyridine-2-carboxylic acid [9,9-difluoro-2-(3-fluoro-phenyl)-1-oxo-2-aza-spiro[4.5]dec-7-yl]-amide]	47 to 93%
Cc1cccc(C(=O)N[C@H]2CCC[C@]3(CCN(Cc4ccccc4)C3=O)C2)n1 (relative stereo) [Example 83, cis-6-methyl-pyridine-2-carboxylic acid (2-benzyl-1-oxo-2-aza-spiro[4.5]dec-7-yl)-amide]	73 to 95%
Cc1cncc(N2CC[C@]3(CCC[C@H](NC(=O)c4cccc(C)n4)C3)C2=O)c1 (relative stereo) [Example 71, cis-6-Methyl-pyridine-2-carboxylic acid [2-(5-methyl-pyridin-3-yl)-1-oxo-2-aza-spiro[4.5]dec-7-yl]-amide]	73 to 95%
O=C1C[C@@H](NC(=O)c2cccc(F)c2)C[C@]2(CCN(c3cccc(F)c3)C2=O)C1 (relative stereo) [Example 123, cis-3-Fluoro-N-[2-(3-fluoro-phenyl)-1,9-dioxo-2-aza-spiro[4.5]dec-7-yl]-benzamide]	47 to 93%
COc1cc(F)cc(N2CC[C@]3(CCC[C@H](NC(=O)c4cccc(F)c4)C3)C2=O)c1 (relative stereo) [Example 135, cis-3-Fluoro-N-[2-(3-fluoro-5-methoxy-phenyl)-1-oxo-2-aza-spiro[4.5]dec-7-yl]-benzamide]	47 to 93%

SMILES	Emax
Cc1nccc(N2CC[C@]3(CCC[C@H](NC(=O)c4ccc(F)c(F)c4)C3)C2=O)n1 (relative stereo) [Example 90, cis-3,4-Difluoro-N-[2-(2-methyl-pyrimidin-4-yl)-1-oxo-2-aza-spiro [4.5]dec-7-yl]-benzamide]	73 to 95%
Cc1cccc(C(=O)N[C@@H]2CC(F)(F)C[C@@]3(CCN(c4ccc(F)cn4)C3=O)C2)n1 (racemic) [Example 109, cis-6-Methyl-pyridine-2-carboxylic acid [9,9-difluoro-2-(5-fluoro-pyridin-2-yl)-1-oxo-2-aza-spiro[4.5]dec-7-yl]-amide]	47 to 93%
Cc1nccc(C(=O)N[C@@H]2C[C@H](O)C[C@@]3(CCN(c4cc(F)cc(F)c4)C3=O)C2)n1 (relative stereo) [Example 116, cis-2-Methyl-pyrimidine-4-carboxylic acid [2-(3,5-difluorphenyl)-9-hydroxy-1-oxo-2-aza-spiro[4.5]dec-7-yl]-amide]	47 to 93%
Cc1nccc(N2CC[C@]3(CCC[C@H](NC(=O)c4ccc(F)cc4)C3)C2=O)n1 (relative stereo) [Example 89, cis-4-Fluoro-N-[2-(2-methyl-pyrimidin-4-yl)-1-oxo-2-aza-spiro [4.5]dec-7-yl]-benzamide]	73 to 95%
Cc1nccc(C(=O)N[C@@H]2CC(F)(F)C[C@@]3(CCN(c4cccc(F)c4)C3=O)C2)n1 (single isomer, unassigned) [Example 104]	47 to 93%
O=C(N[C@@H]1CC(F)(F)C[C@@]2(CCN(c3cccc(F)c3)C2=O)C1)c1ccccn1 (racemic) [Example 97, cis-Pyridine-2-carboxylic acid [9,9-difluoro-2-(3-fluoro-phenyl)-1-oxo-2-aza-spiro[4.5]dec-7-yl]-amide]	88 to 93%
O=C(N[C@@H]1CC(F)(F)C[C@@]2(CCN(c3cccc(F)c3)C2=O)C1)c1ccccn1 (single isomer, unassigned) [Example 98]	88 to 93%
Cc1cccc(C(=O)N[C@H]2CCC[C@]3(CCN(c4ccnc(C)n4)C3=O)C2)n1 (relative stereo) [Example 62, cis-6-methyl-pyridine-2-carboxylic acid [2-(2-methyl-pyrimidin-4-yl)-1-oxo-2-aza-spiro[4.5]dec-7-yl]-amide]	73 to 95%
Cc1nccc(C(=O)N[C@@H]2C[C@@H](F)C[C@@]3(CCN(c4cc(F)cc(F)c4)C3=O)C2)n1 (relative stereo) [Example 122, trans-2-Methyl-pyrimidine-4-carboxylic acid [2-(3,5-difluoro-phenyl)-9-fluoro-1-oxo-2-aza-spiro[4.5]dec-7-yl]-amide]	47 to 93%
Cc1nccc(C(=O)N[C@H]2CC(F)(F)C[C@]3(CCN(c4cccc(F)c4)C3=O)C2)n1 (single isomer, unassigned) [Example 103]	47 to 93%
Cc1cccc(C(=O)N[C@H]2CCC[C@]3(CCN(C)C3=O)C2)n1 (relative stereo) [Example 153]	47 to 93%
O=C(N[C@H]1CC(F)(F)C[C@]2(CCN(c3cc(F)cc(F)c3)C2=O)C1)c1ccccn1 (single isomer, unassigned) [Example 113]	47 to 93%
Cc1cc(C(=O)N[C@H]2CCC[C@]3(CCN(c4cccc(F)c4)C3=O)C2)ccn1 (racemic) [Example 78, cis-N-[2-(3-Fluoro-phenyl)-1-oxo-2-aza-spiro[4.5]dec-7-yl]-2-methyl-isonicotinamide]	73 to 95%
Cc1nccc(N2CC[C@]3(C[C@H](NC(=O)c4cccc(F)c4)CC(F)(F)C3)C2=O)n1 (single isomer, unassigned) [Example 121]	47 to 93%
O=C(N[C@H]1CCC[C@]2(CCN(c3cccc(F)c3)C2=O)C1)c1cccc(CO)n1 (relative stereo) [Example 93, cis-6-Hydroxymethyl-pyridine-2-carboxylic acid [2-(3-fluoro-phenyl)-1-oxo-2-aza-spiro[4.5]dec-7-yl]-amide]	73 to 95%
